Measured values as given in patent publication US20030027791A1, “Composition and method for reducing adverse interactions between phenothiazine derivatives and plasma using cyclodextrins” (Wyeth, priority 2001, published 2003).

Experiments:
[1] = intravenous use; cited from earlier work
[2] = in vivo; cited from earlier work
[3] = Precipitate formation when promethazine hydrochloride preparation is mixed with plasma in vitro; format: physicochemical; details: mixing ratio not stated
From the text: Without being bound by any particular theory, it is believed that this precipitate formation could be related to the venous thrombosis found at the injection site, as well as the cause of other local adverse reactions involving promethazine hydrochloride injection. […] With a composition according to one or more of the embodiments set forth herein, it is expected that a promethazine hydrochloride solution given by the routes of i.v. and i.m. (intramuscular) injection would have fewer incidences of irritation and other adverse reactions at the site of injection.

For `CC(CN1c2ccccc2Sc2ccccc21)N(C)C.Cl` (racemic) [promethazine hydrochloride, 10H-Phenothiazine-10-ethanamine, N,N, α-trimethyl-, monohydrochloride, (±)-], the “Adverse reactions at the injection site” value [1] is given as “some incidents of venous thrombosis at the injection site have been encountered”, the “Plasma creatine kinase levels” value [2] is given as “raise plasma creatine kinase levels” and the “Precipitate formation when solution is mixed with plasma in vitro” value [3] is given as “precipitates form immediately”.
